This is an account of results in BindingDB's records for doi:10.1016/0960-894X(95)00040-Z (1995).

The nature of the assay: Compound was tested for inhibitory activity against prostaglandin synthetase in mouse brain microsomes.

`C1=C(CCN2CCOCC2)c2ccccc2/C1=C/c1ccccc1` [4-(2-{3-[1-Phenyl-meth-(E)-ylidene]-3H-inden-1-yl}-ethyl)-morpholine] yielded an IC50 of 20 µM.
